Experimental data from patent US20230109833A1, “METABOLICALLY STABLE N-ACYLAMINOOXADIAZOLES USEFUL AS ANTIBACTERIAL AGENTS” (MICROBIOTIX, INC., priority 2017, published 2023).

How the values were obtained:
Dopamine D1 = Dopamine D1 (Homo sapiens, UniProt P21728); format: binding; conditions: 10 μM compound, Hit Profile Panel
Nicotinic Acetylcholine = format: binding; conditions: human; 10 μM compound; Hit Profile Panel
Opiate μ(OP3, MOP) = Opiate μ(OP3, MOP) (Homo sapiens, UniProt P35372); format: binding; conditions: 10 μM compound, Hit Profile Panel
Sequence of Opiate μ(OP3, MOP) (P35372 whole entry): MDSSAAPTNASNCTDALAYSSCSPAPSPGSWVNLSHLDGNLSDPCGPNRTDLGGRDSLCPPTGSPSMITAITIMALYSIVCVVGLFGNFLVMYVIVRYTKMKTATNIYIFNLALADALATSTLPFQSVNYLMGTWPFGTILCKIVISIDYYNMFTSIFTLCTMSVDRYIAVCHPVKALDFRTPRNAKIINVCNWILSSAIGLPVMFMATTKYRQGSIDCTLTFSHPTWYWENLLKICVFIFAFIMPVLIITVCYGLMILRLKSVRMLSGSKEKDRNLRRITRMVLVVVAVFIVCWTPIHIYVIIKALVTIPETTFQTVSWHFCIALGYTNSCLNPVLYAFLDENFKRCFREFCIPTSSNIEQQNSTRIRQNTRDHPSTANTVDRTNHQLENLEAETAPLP

Sodium Channel, Site 2 = format: binding; conditions: rat; 10 μM compound; Hit Profile Panel
Adrenergic α1A = molecular target: T1, Adrenergic α1A (Rattus norvegicus, UniProt P43140); format: binding; conditions: 10 μM compound, Hit Profile Panel
T1 sequence (P43140 1-466): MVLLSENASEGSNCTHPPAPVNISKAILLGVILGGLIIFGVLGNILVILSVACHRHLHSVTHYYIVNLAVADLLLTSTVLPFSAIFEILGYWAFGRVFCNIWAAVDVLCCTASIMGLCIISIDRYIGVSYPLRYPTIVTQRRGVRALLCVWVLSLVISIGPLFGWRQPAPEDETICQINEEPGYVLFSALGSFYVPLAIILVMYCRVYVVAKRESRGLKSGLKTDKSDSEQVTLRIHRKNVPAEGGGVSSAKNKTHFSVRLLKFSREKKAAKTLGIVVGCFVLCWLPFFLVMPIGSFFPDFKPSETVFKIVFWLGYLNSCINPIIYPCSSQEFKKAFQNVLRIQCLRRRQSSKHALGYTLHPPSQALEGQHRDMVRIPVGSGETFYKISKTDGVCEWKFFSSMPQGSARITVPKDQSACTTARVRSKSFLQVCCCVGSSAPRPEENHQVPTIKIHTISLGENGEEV

Phorbol Ester = format: binding; conditions: mouse; 10 μM compound; Hit Profile Panel
CYP2D6 = molecular target: T2, CYP2D6 (Homo sapiens, UniProt P10635); test: CYP450 inhibition; format: biochemical; conditions: 10 μM compound, Hit Profile Panel; for inhibition at 10 µM: read-out: % Inhibition, CYP450, 2D6
T2 construct: purchased BD Gentest Corp., Woburn, Mass
T2 sequence (P10635 whole entry): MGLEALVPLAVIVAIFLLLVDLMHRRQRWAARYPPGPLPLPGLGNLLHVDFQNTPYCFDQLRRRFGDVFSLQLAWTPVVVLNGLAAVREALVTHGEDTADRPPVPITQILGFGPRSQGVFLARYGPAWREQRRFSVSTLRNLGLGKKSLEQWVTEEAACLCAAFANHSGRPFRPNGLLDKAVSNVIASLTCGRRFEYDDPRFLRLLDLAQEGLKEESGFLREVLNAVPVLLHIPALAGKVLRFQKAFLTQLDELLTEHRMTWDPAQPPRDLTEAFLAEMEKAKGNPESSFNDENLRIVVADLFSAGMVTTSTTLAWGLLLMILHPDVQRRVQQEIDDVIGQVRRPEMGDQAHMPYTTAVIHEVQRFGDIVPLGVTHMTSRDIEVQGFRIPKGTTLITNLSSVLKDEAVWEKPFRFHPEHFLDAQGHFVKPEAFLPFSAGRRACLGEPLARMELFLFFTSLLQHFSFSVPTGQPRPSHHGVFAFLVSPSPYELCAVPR
Experimental: (§1) Because inhibition of cytochrome P450 (CYP450) enzymes in vitro is predictive of potential drug interactions in vivo, CYP450 inhibition was measured using commercially available Human Cytochrome P450 kits (BD Gentest Corp., Woburn, Mass.) for the major CYP450s: CYP3A4 and CYP2D6. The assays were performed according to the manufacturer's instructions.

CYP3A4 = molecular target: T3, CYP3A4 (Homo sapiens, UniProt P08684); test: CYP450 inhibition; format: biochemical; conditions: 10 μM compound, Hit Profile Panel; for inhibition at 10 µM: read-out: % Inhibition, CYP450, 3A4
T3 construct: purchased BD Gentest Corp., Woburn, Mass
T3 sequence (P08684 whole entry): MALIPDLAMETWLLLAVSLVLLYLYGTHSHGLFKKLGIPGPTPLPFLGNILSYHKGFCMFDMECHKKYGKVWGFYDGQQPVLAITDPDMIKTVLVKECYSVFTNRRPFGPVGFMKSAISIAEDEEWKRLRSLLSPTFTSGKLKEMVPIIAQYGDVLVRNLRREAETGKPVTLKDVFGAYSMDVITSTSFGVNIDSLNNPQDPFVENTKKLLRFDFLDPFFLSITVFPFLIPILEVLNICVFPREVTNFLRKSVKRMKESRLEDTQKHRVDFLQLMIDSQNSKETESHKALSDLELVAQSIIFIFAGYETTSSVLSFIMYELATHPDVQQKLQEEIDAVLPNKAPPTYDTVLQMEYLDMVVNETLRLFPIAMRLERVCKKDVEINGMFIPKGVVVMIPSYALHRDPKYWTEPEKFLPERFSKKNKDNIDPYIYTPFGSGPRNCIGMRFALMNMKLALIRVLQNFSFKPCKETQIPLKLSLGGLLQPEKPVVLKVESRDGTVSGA
Experimental: as §1

Adrenergic α1B = molecular target: T4, Adrenergic α1B (Rattus norvegicus, UniProt P15823); format: binding; conditions: 10 μM compound, Hit Profile Panel
T4 sequence (P15823 1-515): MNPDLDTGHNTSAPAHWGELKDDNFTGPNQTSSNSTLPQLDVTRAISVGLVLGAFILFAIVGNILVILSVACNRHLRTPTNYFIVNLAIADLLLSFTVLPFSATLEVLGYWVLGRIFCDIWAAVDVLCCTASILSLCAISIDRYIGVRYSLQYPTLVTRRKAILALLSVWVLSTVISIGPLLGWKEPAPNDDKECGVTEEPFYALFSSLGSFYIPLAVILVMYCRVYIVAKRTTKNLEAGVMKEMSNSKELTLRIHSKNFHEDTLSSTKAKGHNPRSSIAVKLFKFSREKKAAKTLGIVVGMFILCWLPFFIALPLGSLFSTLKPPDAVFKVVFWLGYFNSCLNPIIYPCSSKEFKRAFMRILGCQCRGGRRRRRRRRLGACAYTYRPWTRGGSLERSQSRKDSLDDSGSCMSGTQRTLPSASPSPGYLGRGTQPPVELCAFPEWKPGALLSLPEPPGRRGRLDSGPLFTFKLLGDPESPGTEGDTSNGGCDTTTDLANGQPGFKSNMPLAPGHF

[1] = test system: GABAA, Flunitrazepam, Central; format: binding; conditions: rat; 10 μM compound; Hit Profile Panel
[2] = test system: Glutamate, NMDA, Phencyclidine; format: binding; conditions: rat; 10 μM compound; Hit Profile Panel
Rolipram = format: binding; conditions: rat; 10 μM compound; Hit Profile Panel
Dopamine D2s = Dopamine D2s (Homo sapiens, UniProt P14416); format: binding; conditions: 10 μM compound, Hit Profile Panel
Sequence of Dopamine D2s (P14416 1-414 isoform P14416-2): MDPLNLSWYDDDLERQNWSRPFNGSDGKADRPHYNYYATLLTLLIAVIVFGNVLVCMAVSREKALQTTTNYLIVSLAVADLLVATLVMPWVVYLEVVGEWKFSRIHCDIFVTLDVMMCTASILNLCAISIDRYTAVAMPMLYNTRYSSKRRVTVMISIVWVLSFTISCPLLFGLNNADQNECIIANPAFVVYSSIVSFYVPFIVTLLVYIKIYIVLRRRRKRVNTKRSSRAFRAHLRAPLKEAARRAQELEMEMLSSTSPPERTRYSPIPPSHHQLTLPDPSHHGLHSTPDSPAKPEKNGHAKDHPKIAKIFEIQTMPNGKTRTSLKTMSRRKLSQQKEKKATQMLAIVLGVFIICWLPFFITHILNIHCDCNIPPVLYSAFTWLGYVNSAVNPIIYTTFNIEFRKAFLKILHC

Adenosine A2A = Adenosine A2A (Homo sapiens, UniProt P29274); format: binding; conditions: 10 μM compound, Hit Profile Panel
Sequence of Adenosine A2A (P29274 whole entry): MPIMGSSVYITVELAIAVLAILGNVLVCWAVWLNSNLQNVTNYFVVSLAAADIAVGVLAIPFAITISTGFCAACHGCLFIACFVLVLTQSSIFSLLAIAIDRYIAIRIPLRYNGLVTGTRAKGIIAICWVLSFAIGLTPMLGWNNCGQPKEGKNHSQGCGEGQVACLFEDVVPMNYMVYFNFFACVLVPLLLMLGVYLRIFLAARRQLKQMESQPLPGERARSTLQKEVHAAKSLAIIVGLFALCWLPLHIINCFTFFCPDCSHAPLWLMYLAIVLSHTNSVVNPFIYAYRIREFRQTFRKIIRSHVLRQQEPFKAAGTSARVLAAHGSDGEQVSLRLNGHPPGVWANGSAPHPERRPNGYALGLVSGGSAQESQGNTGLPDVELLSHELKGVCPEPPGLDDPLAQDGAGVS

Muscarinic M2 = molecular target: T5, Muscarinic M2 (Homo sapiens, UniProt P08172); format: binding; conditions: 10 μM compound, Hit Profile Panel
T5 sequence (P08172 1-466): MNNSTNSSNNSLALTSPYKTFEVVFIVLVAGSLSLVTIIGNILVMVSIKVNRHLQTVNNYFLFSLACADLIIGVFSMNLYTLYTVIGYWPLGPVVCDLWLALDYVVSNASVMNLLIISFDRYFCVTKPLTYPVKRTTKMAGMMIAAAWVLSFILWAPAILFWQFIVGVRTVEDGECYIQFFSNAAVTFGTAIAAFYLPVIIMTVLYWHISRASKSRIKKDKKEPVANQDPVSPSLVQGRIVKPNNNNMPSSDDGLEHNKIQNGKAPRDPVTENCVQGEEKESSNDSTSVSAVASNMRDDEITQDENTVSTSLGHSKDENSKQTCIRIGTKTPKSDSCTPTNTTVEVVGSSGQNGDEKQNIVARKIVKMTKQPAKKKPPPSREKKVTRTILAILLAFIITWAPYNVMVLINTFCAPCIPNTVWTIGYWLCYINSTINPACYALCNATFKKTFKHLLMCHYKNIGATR

Cannabinoid CB1 = Cannabinoid CB1 (Homo sapiens, UniProt P21554); format: binding; conditions: 10 μM compound, Hit Profile Panel
Sequence of Cannabinoid CB1 (P21554 whole entry): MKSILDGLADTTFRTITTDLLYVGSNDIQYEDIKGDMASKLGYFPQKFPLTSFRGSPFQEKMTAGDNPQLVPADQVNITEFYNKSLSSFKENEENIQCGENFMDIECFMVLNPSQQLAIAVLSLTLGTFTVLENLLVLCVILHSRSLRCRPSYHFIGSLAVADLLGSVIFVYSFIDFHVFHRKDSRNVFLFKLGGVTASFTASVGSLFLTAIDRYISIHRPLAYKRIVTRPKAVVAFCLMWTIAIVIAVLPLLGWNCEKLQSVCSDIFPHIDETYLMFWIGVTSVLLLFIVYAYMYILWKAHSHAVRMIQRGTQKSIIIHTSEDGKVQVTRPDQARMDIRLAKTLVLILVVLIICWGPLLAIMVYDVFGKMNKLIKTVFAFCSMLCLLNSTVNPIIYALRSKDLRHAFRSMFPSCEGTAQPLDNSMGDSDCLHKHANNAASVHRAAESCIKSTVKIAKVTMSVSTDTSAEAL

Adrenergic β1 = Adrenergic β1 (Homo sapiens, UniProt P08588); format: binding; conditions: 10 μM compound, Hit Profile Panel
Sequence of Adrenergic β1 (P08588 whole entry): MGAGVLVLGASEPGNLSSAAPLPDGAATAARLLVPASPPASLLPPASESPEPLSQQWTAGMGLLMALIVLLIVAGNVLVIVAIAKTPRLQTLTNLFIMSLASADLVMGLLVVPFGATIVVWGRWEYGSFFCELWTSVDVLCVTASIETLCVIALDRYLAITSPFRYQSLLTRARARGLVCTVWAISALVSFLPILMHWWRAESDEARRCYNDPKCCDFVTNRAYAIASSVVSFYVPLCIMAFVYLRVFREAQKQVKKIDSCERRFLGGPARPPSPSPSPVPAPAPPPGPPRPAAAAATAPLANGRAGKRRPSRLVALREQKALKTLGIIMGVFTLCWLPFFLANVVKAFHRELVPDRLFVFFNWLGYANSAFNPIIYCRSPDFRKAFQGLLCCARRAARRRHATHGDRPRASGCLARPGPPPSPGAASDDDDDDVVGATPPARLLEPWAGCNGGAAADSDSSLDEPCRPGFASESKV

Adrenergic β2 = Adrenergic β2 (Homo sapiens, UniProt P07550); format: binding; conditions: 10 μM compound, Hit Profile Panel
Sequence of Adrenergic β2 (P07550 whole entry): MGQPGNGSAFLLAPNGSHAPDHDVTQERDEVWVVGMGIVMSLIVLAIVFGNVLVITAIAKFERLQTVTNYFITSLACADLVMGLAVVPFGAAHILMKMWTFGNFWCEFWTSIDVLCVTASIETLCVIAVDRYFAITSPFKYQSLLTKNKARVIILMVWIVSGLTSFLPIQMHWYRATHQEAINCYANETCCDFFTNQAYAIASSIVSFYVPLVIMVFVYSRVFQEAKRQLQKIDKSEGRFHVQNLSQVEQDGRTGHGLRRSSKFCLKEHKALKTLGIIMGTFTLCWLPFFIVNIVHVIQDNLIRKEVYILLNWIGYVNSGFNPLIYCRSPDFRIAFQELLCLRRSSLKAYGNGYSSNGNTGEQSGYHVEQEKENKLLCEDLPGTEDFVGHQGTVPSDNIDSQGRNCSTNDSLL

[3] = test system: Calcium Channel L-type, Dihydropyridine; format: binding; conditions: rat; 10 μM compound; Hit Profile Panel
Muscarinic M3 = Muscarinic M3 (Homo sapiens, UniProt P20309); format: binding; conditions: 10 μM compound, Hit Profile Panel
Sequence of Muscarinic M3 (P20309 whole entry): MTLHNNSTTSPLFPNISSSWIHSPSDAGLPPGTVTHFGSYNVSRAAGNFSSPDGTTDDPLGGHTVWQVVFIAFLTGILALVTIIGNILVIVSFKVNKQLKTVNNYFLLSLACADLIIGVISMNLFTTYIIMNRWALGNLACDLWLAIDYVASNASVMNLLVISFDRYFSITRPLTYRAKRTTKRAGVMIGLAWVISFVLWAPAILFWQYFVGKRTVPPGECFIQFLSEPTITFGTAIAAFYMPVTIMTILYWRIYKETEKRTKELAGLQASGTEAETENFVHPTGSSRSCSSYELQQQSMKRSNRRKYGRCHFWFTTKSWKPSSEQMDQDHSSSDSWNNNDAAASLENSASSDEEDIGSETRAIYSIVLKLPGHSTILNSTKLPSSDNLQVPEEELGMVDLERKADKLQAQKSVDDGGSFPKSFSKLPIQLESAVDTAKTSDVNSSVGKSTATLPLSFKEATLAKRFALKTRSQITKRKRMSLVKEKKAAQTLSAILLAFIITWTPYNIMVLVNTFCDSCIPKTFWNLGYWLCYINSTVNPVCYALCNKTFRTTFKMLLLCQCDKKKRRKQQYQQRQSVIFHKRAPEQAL

Sequence of Dopamine D1 (P21728 whole entry): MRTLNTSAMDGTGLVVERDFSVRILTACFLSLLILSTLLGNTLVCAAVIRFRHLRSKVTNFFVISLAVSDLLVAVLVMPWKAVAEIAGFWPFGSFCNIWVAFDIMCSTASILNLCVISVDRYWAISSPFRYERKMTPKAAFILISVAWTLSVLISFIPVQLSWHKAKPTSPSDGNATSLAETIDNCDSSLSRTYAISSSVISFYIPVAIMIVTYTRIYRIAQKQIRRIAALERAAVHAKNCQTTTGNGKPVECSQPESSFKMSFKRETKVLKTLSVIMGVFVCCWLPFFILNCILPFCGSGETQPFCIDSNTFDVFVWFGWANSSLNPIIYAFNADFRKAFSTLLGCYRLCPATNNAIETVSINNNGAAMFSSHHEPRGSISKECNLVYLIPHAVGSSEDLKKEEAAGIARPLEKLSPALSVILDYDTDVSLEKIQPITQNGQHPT

Structure (SMILES)	% Inhibition, Nicotinic Acetylcholine (Nicotinic Acetylcholine) [%]	% Inhibition, Sodium Channel, Site 2 (Sodium Channel, Site 2) [%]	% Inhibition, Phorbol Ester (Phorbol Ester) [%]	% Inhibition, GABAA, Flunitrazepam, Central [1] [%]	% Inhibition, Glutamate, NMDA, Phencyclidine [2] [%]	% Inhibition, Rolipram (Rolipram) [%]	% Inhibition, Calcium Channel L-type, Dihydropyridine [3] [%]	inhibition at 10 µM (Dopamine D1) [%]	inhibition at 10 µM (Opiate μ(OP3, MOP)) [%]	inhibition at 10 µM (Adrenergic α1A) [%]	inhibition at 10 µM (CYP2D6) [%]	inhibition at 10 µM (CYP3A4) [%]	inhibition at 10 µM (Adrenergic α1B) [%]	inhibition at 10 µM (Dopamine D2s) [%]	inhibition at 10 µM (Adenosine A2A) [%]	inhibition at 10 µM (Muscarinic M2) [%]	inhibition at 10 µM (Cannabinoid CB1) [%]	inhibition at 10 µM (Adrenergic β1) [%]	inhibition at 10 µM (Adrenergic β2) [%]	inhibition at 10 µM (Muscarinic M3) [%]	further results
O=C(Nc1nnc(-c2ccc(F)cc2)o1)N1CCc2ccccc2C1 [MBX-4132]	−8	4	4	13	−3	2	15														% Inhibition, Dopamine D1 (Dopamine D1): −8%; % Inhibition, Opiate μ(OP3, MOP) (Opiate μ(OP3, MOP)): 74%; % Inhibition, Adrenergic α1A (Adrenergic α1A): 24%; % Inhibition, CYP450, 2D6 (CYP2D6): 10%; % Inhibition, CYP450, 3A4 (CYP3A4): 7%; % Inhibition, Adrenergic α1B (Adrenergic α1B): 21%; % Inhibition, Dopamine D2s (Dopamine D2s): 25%; % Inhibition, Adenosine A2A (Adenosine A2A): 43%; % Inhibition, Muscarinic M2 (Muscarinic M2): 13%; % Inhibition, Cannabinoid CB1 (Cannabinoid CB1): 14%; % Inhibition, Adrenergic β1 (Adrenergic β1): −10%; % Inhibition, Adrenergic β2 (Adrenergic β2): 36%; % Inhibition, Muscarinic M3 (Muscarinic M3): 16%
O=C(Nc1nnc(-c2ccc(F)cc2)o1)c1ccc(OC2CCCCC2)cc1 [compound 4292]	1	−2	2	−1	0	−8	23	17	4	9	2	4	3	1	11	0	11	3	6	0	
O=C(Nc1nnc(-c2ccc(F)cc2)o1)N1CC=C(C(F)(F)F)CC1 [compound 4347]	−4	−5	7	22	5	−6	16	5	-14	-21	9	9	7	-2	3	2	0	3	8	2	
